The source of these data is US20060142393A1, “Bis(thio-hydrazide amides) for treatment of hyperplasia” (priority 2004, published 2006).

In one series the test system is MES-SA/DX5. Nature of the series: MTS growth inhibition, multi-drug resistant MES-SA/DX5 cells. It counts as cell-based, human. Particulars: for IC50: Homo sapiens. The procedure:
(§1) The in vitro activity of the compounds was assessed in a selected set of human cancer cell lines.
(§2) MES—SA, a model of uterine sarcoma, is sensitive to a number of chemotherapeutic agents, including Doxorubicin, Dactinomycin, Mitomycin C, Taxol™ and Bleomycin, but resistant to Vinblastine and Cisplatin. MES—SA/DX5 was established in the presence of increasing concentrations of Doxorubicin. […] Both MES—SA and MES—SA/Dx5 were purchased from ATCC (ATCC CRL-1976 and ATCC CRL-1977, respectively).
(§3) All experiments were performed on exponentially growing cell culture. Cell densities were 2.5×10^4 cells/ml in all experiment except special.

The subject of another series is HL-60. Nature of the series: MTS growth inhibition, HL-60 cells. Particulars: Homo sapiens, HL-60, 72 h, MTS assay. It counts as cell-based. The procedure: (§4) The in vitro activity of the compounds was assessed in a selected set of human cancer cell lines. Three pairs of tumor cell lines (non-resistant/resistant) were used to identify novel potent antitumor compounds which are capable of overcoming multi-drug resistance.
(§5) HL-60, a model of myeloid leukemia, was obtained from ATCC (ATCC CCL-240); and HL60/TX1000 was isolated in vitro by subculturing HL-60 in progressively higher concentration of Taxol™. HL-60/TX1000 cells over-express mdr-1 mRNA and p-glycoprotein (PCP), as determined by western blot and immunofluorescence labeling with antiPGP antibodies. The cells are cross-resistant to Taxol™, Vincristine, Adriamycin, Etoposide and Doxorubicin.
as §3
On the technique in general: Tetrazolium assays rely on reduction of a dye to a coloured formazan, in cell work by metabolically active cells.

The test system of a further series is HL-60/TX1000. Nature of the series: MTS growth inhibition, multi-drug resistant HL-60/TX1000 cells. The class given is cell-based, human. Particulars: for IC50: Homo sapiens, HL60/TX1000, 72 hours, MTS assay, MDR cell line. On the procedure:
as §4, §5, §3

Another series deals with Bowes. Nature of the series: MTS growth inhibition, Bowes melanoma cells. The class given is cell-based. Particulars: Homo sapiens, 72 h, MTS assay. The procedure:
as §4
(§6) Bowes is a melanoma cell line; and Bowes/OV2 is a Vincristine resistant Bowes melanoma cell line.
as §3

The next series has as its system Bowes/OV2. Kind of series: MTS growth inhibition, Vincristine resistant Bowes/OV2 cells. The class given is cell-based, human. The settings on record: for IC50: Homo sapiens, 72 hours, MTS assay, MDR cell line. On the procedure:
as §4, §6, §3

The subject of series [1] is MDA-435 human breast tumor. Kind of series: MDA-435 human breast carcinoma tumors in nude mice, combination with Epothilone D. Particulars: Compound (1) 50 mg/kg + Epothilone D 5 mg/kg intravenously, 3 times a week for 3 weeks. It counts as in vivo.
Procedure: A supplemented media was prepared from 50% DMEM/Dulbecco Modified Eagle Medium (High Glucose), 50% RPMI 1640, 10% FBS/Fetal Bovine Serum (Hybridoma Tested; Sterile Filtered), 1% L-Glutamine, 1% Penicillin-Streptomycin, 1% MEM Sodium Pyruvate and 1% MEM Non-Essential Amino Acids. FBS was obtained from Sigma Chemical Co. and other ingredients were obtained from Invitrogen Life Technologies, USA). The supplemental media was warmed to 37° C and 50 ml of media was added to a 175 cm^2 tissue culture flask.
The cells used in the assay were MDA-435 Human Breast Carcinoma from the American Type Culture Collection. 1 vial of MDA-435 cells from the liquid nitrogen frozen cell stock was removed. The frozen vial of cells was immediately placed into a 37° C. water bath and gently swirled until thawed. The freeze-vial was wiped with 70% ethanol and cells were immediately pipetted into the 175 cm^2 tissue culture flask containing supplemented media. […]
Another series concerns CEM. Nature of the series: MTS cytotoxicity, CEM T cell leukemia. The settings on record: Homo sapiens, CCRF-CEM, 72 h, read-out: In vitro Cytotoxicity IC50, CEM. The procedure: (§7) The in vitro activity of the compounds was determined in a selected set of human leukemia cell lines. CEM (T-cell leukemia), Jurkat (T-cell leukemia), K562 (chronic myelocyte), THP-1 (monocyte), SB (B-cell leukemia), U937 (lymphoma) were purchased from ATCC. H2 leukemia cell line was a gift from Harvard Medical School. The cell lines were maintained in RPMI1640(GIBCO) supplemented with 10% FCS, 100 units/ml penicillin, 100 ug/ml streptomycin, and 2 mM L-glutamine. […] All experiments were performed on exponentially growing cell culture. Cell densities were 2.5×10^4 cells/mL in all experiments.
(§8) Final concentrations […] were obtained by diluting the stock solution directly into the tissue culture medium. Cells were incubated with varying concentrations of compounds for 72 hours and the IC50 was determined by MTS (i.e. […]) assay.

The subject of the next series is SB. Nature of the series: MTS cytotoxicity, SB B cell leukemia. The settings on record: Homo sapiens, 72 h, read-out: In vitro Cytotoxicity IC50, SB. The procedure:
as §7, §8

Another series deals with CEM cells. Nature of the series: Human T-cell leukemia (CEM) growth in SCID mice, FACS quantitation of CEM cells in blood. It counts as in vivo. The settings on record: 25 mg/kg intraperitoneally twice a day for 3 weeks; blood at day 33; CEM cells in white blood cells by FACS. The text has this:
Human T-cell leukemia cell line, CEM, was obtained from American Type Culture Collection. Eight-week old female SCID mice were purchased from Charles Rive Laboratories (Wilmington, Mass.). FITC conjugated anti-human […] was obtained from BD […]). ACK lysing buffer was obtained from BioWhittaker. […] After three weeks treatment, blood was taken from mouse retro-orbital sinus at day 33. Red blood cells were partially lyzed with ACK lysing buffer. The cells were stained with FITC conjugated anti-human […] antibody for one hour at 4° C. FACS analysis was performed to quantitate the amount of CEM cells in the blood. White blood cells were gated for FACS analysis.
On the technique in general: Flow cytometry measures light scatter and fluorescence of single cells or particles in a stream.

The test system of series [2] is MES-SA/DX5 human sarcoma tumor. Kind of series: MES-SA/DX5 human uterine sarcoma tumors in nude mice. The class given is in vivo. The settings on record: 15 mg/kg intravenously, 3 times a week for 3 weeks. The procedure:
A supplemented media was prepared from 50% DMEM/Dulbecco Modified Eagle Medium (High Glucose), 50% RPMI 1640, 10% FBS/Fetal Bovine Serum (Hybridoma Tested; Sterile Filtered), 1% L-Glutamine, 1% Penicillin-Streptomycin, 1% MEM Sodium Pyruvate and 1% MEM Non-Essential Amino Acids. FBS was obtained from Sigmna Chemical Co. and other ingredients were obtained from Invitrogen Life Technologies, USA). The supplemental media was warmed to 37° C. and 50 ml of media was added to a 175 cm^2 tissue culture flask.
The cells used in the assay were multi-drug resistant MES—SA/DX-5 Human Uterine Sarcoma cells from the American Type Culture Collection. 1 vial of MES—SA/DX-5 cells from the liquid nitrogen frozen cell stock was removed. The frozen vial of cells was immediately placed into a 37° C. water bath and gently swirled until thawed. The freeze-vial was wiped with 70% ethanol and cells were immediately pipetted into the 175 cm^2 tissue culture flask containing supplemented media. […]
The flask was washed with 10 ml of sterile room temperature phosphate buffered saline (PBS). […] The supernatant was aspirated and the cell pellet was resuspended in 10 ml of supplemented media and the cells were counted. […]
The above procedure for trypsinizing and centrifuging the cells were followed. The supernatant was aspirated and the cell pellet was resuspended in 10 ml of sterile PBS and the cells were counted. […]

Series [3] in a line: MTS cytotoxicity, 39SK normal fibroblast. The settings on record: human, 39SK cells (normal fibroblast), MTS assay, read-out: In vitro Cytotoxicity IC50, 39SK. It counts as cell-based.
The next series deals with Jurkat. Kind of series: MTS cytotoxicity, Jurkat T cell leukemia. The settings on record: Homo sapiens, 72 h, read-out: In vitro Cytotoxicity IC50, Jurkat. The procedure:
as §7, §8

The subject of the next series is K-562. Kind of series: MTS cytotoxicity, K-562 chronic myelocyte. It counts as cell-based. Particulars: Homo sapiens, K562, 72 hours, MTS assay, read-out: In vitro Cytotoxicity IC50, K-562. The procedure:
as §7, §8

The subject of the next series is THP-1. Nature of the series: MTS cytotoxicity, THP-1 monocyte. The settings on record: Homo sapiens, THP-1, 72 h, read-out: In vitro Cytotoxicity IC50, THP-1. On the procedure: as §7, §8
A further series concerns U937. Nature of the series: MTS cytotoxicity, U937 lymphoma. It counts as cell-based. Particulars: Homo sapiens, U-937, 72 hours, MTS assay, read-out: In vitro Cytotoxicity IC50, U937. The procedure: as §7, §8
A further series deals with H2. Kind of series: MTS cytotoxicity, H2 leukemia. The class given is cell-based. Particulars: Homo sapiens, 72 hours, MTS assay, read-out: In vitro Cytotoxicity IC50, H2. The procedure: as §7, §8
The next series deals with MES-SA. Nature of the series: MTS growth inhibition, MES-SA cells. The class given is cell-based. Particulars: Homo sapiens, 72 h, MTS assay. On the procedure:
as §1, §2, §3

Setting [4] is: MES-SA/Dx5, Example 2, protocol of Example 1, MDR uterine sarcoma cell line, read-out: IC50 MES/DX5.
[5] abbreviates: MES-SA/Dx5, read-out: IC50 MES/DX5.
[6] abbreviates: MES-SA/Dx5, 72 hours, MTS assay, MDR cell line, read-out: IC50 MES-SA/DX5.

Where two headings read alike, the source gives them in different places.

In the case of `CN(NC(=O)CC(=O)NN(C)C(=S)C1CC1)C(=S)C1CC1` [(18)], in the series with MES-SA/DX5 (setting [4]), the IC50 is 10 nM.

As for `CN(NC(=O)CC(=O)NN(C)C(=S)c1ccccc1)C(=S)c1ccccc1` [Compound (1)], the IC50 in the series on MES-SA/DX5 (MES-SA/Dx5, 72 h, read-out: IC50 MES-SA/DX5) stood at 5 nM; with HL-60 it was 400 nM; in the series with HL-60/TX1000, 50 nM; with Bowes it was 200 nM; with Bowes/OV2, 10 nM; in the series with CEM, 10 nM. The IC50 with SB was determined as 5 nM. The “specificity against MES-SA/DX5” value with MES-SA/DX5 (IC50 MES-SA / IC50 MES-SA/DX5 (=0.05/0.005)) came out at 10. Further, the “specificity against HL60/TX1000” value in the series with HL-60/TX1000 (IC50 HL-60 / IC50 HL-60/TX1000 (=0.4/0.05)) came out at 8. Also, the “specificity against Bowes/OV2” value in the series with Bowes/OV2 (IC50 Bowes / IC50 Bowes/OV2 (=0.2/0.01)) stood at 20. Also, the “effect on anti-tumor activity of Epothilone D” value in series [1] (FIG. 2) is given as “significantly enhanced anti-tumor activity of Epothilone D”. For the same compound, the “toxicity of combination with Epothilone D (body weight)” value in series [1] (FIG. 3) is reported as “without increasing toxicity”. In addition, in the series with CEM cells, the “% circulating leukemia cells” value is about 4.6%.

As to `COc1cccc(C(=S)N(C)NC(=O)C(C)C(=O)NN(C)C(=S)c2cccc(OC)c2OC)c1OC` [Compound (12)], the IC50 in the series on MES-SA/DX5 (setting [5]) was 5 nM.

For the compound `COc1ccc(C)c(C(=S)N(C)NC(=O)CC(=O)NN(C)C(=S)c2cc(OC)ccc2C)c1` [Compound (13)], the IC50 in the series on MES-SA/DX5 (setting [5]) is 50 nM.

Consider `CN(NC(=O)CC(=O)NN(C)C(=S)c1cc(Cl)ccc1Cl)C(=S)c1cc(Cl)ccc1Cl` [Compound (14)], for which, in the series on MES-SA/DX5 (setting [5]), the IC50 is 10 nM.

On to `CCN(NC(=O)C(C)C(=O)NN(CC)C(=S)c1ccccc1)C(=S)c1ccccc1` [Compound (16)], for which the IC50 in the series with MES-SA/DX5 (setting [5]) amounted to 50 nM. Also, the “toxicity (body weight suppression, behavior changes)” value in series [2] is recorded as “no obvious toxicity”. The “tumor growth of MES/SA-DX5 compared to vehicle treated mice” value in series [2] (FIG. 1) is given as “significantly inhibits the tumor growth”.

As to `CC(=O)O[C@H]1C(=O)[C@@]2(C)[C@H]([C@H](OC(=O)c3ccccc3)[C@]3(O)C[C@H](OC(=O)[C@H](O)[C@@H](NC(=O)c4ccccc4)c4ccccc4)C(C)=C1C3(C)C)[C@]1(OC(C)=O)CO[C@@H]1C[C@@H]2O` [Taxol ™, paclitaxel], the IC50 in the series on MES-SA/DX5 (setting [6]) was 5000 nM; in the series on MES-SA/DX5 (setting [4]), 5000 nM; with HL-60, 2 to 5 nM; in the series on HL-60/TX1000 it was 5000 nM; in the series on Bowes/OV2, 5000 nM; with Jurkat, 1 nM. Moreover, the IC50 stood at 10 nM in the series on CEM; 5 nM in the series on K-562; 5 nM in the series on THP-1; 5 nM in the series on U937; 1 nM in the series on SB; 5 nM in the series on H2. Besides, in [3], the IC50 at 72 h turned out to be 1000 nM.

In the case of `CC[C@]1(O)C[C@H]2CN(CCc3c([nH]c4ccccc34)[C@@](C(=O)OC)(c3cc4c(cc3OC)N(C=O)[C@H]3[C@@](O)(C(=O)OC)[C@H](OC(C)=O)[C@]5(CC)C=CCN6CC[C@]43[C@@H]65)C2)C1` [Vincristine], the IC50 was 2 to 5 nM with MES-SA; 5000 nM with MES-SA/DX5 (setting [6]); 2 to 5 nM in the series on HL-60; 5000 nM with HL-60/TX1000; 2 to 5 nM with Bowes; 5000 nM with Bowes/OV2. For the same compound, the IC50 with Jurkat is 1 nM; in the series with CEM, 5 nM; in the series on K-562 it was 5 nM; in the series with THP-1, 5 nM; in the series on U937, 5 nM; with SB, 1 nM. Moreover, the IC50 with H2 came to 5 nM. The IC50 at 72 h in series [3] was determined as 1000 nM.
